Consider one compound from US8158352B2, “Screening of a novel hepatic syndrome and its uses” (Assistance Publique-Hopitaux de Paris, priority 2000, dated 2012).

In this assay the test system is hepatic bile of patients with intrahepatic cholestasis, cholesterol microcholelithiasis and MDR3 gene abnormality. Kind of assay: Bile lipid composition of the hepatic bile from patients receiving treatment with UDCA. The assay is classed as in vivo, human. Particulars: for Cholesterol saturation index (CSI): calculated from Carey's critical tables. The method, then: The concentration of total bile salts is measured by an enzymatic technique using 3α-hydroxysteroid dehydrogenase (Enzabile, Nycomed, Oslo, Norway). The content of total phospholipids is determined by an enzymatic method in the presence of phospholipase D and choline oxidase. The cholesterol is determined by an enzymatic reaction with cholesterol oxidase or cholesterol esterase. The cholesterol saturation indices for the hepatic bile samples are calculated from Carey's critical tables (J. Lipid Res., 1978, 19, 945-955).
The bile lipid composition of the hepatic bile was studied using samples obtained by radioscopy of the duodenum (patients 2 and 3) or using a T tube (patients 5 and 6). The results obtained in the untreated patients or the patients receiving treatment with UDCA are given respectively in Tables V and VI below.

Where [1] appears, read: Case 5, receiving treatment with UDCA.
Setting [2] is: Case 6, receiving treatment with UDCA.

Turning to `C[C@H](CCC(=O)O)[C@H]1CC[C@H]2[C@@H]3[C@@H](O)C[C@@H]4C[C@H](O)CC[C@]4(C)[C@H]3CC[C@]12C` [UDCA, ursodeoxycholic acid], under setting [1], the “Bile lipid classes: Bile salts (BS)” value is 47.5 mol %, the “Bile lipid classes: Cholesterol (CH)” value stood at 16.8 mol %, the “Bile lipid classes: Phospholipids (PL)” value is listed as 35.7 mol % and the “Concentration of bile PL” value amounted to 7.77. Also, under setting [1], the “Lipid ratios: CH/BS” value is on record as 0.35, the “Lipid ratios: CH/PL” value is listed as 0.47, the “Lipid ratios: PL/BS” value worked out at 0.75 and the “Cholesterol saturation index (CSI)” value is 4.0. Under setting [2], the “Bile lipid classes: Bile salts (BS)” value is reported as 72 mol %, the “Bile lipid classes: Cholesterol (CH)” value worked out at 8.2 mol %, the “Bile lipid classes: Phospholipids (PL)” value turned out to be 19.7 mol % and the “Concentration of bile PL” value is listed as 6.03. Under setting [2], the “Lipid ratios: CH/BS” value came to 0.11, the “Lipid ratios: CH/PL” value is on record as 0.42, the “Lipid ratios: PL/BS” value stood at 0.27 and the “Cholesterol saturation index (CSI)” value was 1.8.
